Assay results: patent US20140235630A1, “COMPOSITIONS AND METHODS FOR THE TREATMENT OF PROLIFERATIVE DISEASES” (Beth Israel Deaconess Medical Center, Inc., priority 2011, published 2014)
Several values for one entry are separate records, joined by “and”; a condition that tells them apart may be missing. Equal entries are not always repeated.

What was measured:
[1] = test system: BRCA1-deleted mammary tumors of MMTV-CreBRCA1^f/fp53+/− mice; experiment: 18FDG PET-CT scanning of tumor-bearing mice; assay type: in vivo, mouse; details: for FDG-uptake of treated tumors: Compound B-treated versus Compound A or combination
Experimental: All animal experiments were conducted in accordance with IACUC-approved protocols at Beth Israel Deaconess Medical Center, Boston, and at the University of Vall d'Hebron, Barcelona, Spain. Female MMTV-CreBRCA1^f/fp53+/− mice were obtained by breeding BRCA1 conditional knockout mice from the NIH repository (01XC8, strain C57BL/6) (Xu et al. Nat. Genet., 22: 37-43, 1999); with MMTV-Cre (Jackson Laboratory B6129-TgN(MMTV-Cre)4Mam) (Wagner et al. Nucleic Acids Res., 25: 4323-4330, 1997) and p53 knockout (Taconic Farms, P53N12-M, C57BL/6) (Donehower et al. Nature, 356: 215-221, 1992). At the time of the study, mice had been inbred for 4 years (>7 generations). The floxed or wild type status of Brca1, the presence of the MMTV-Cre transgene and the p53 heterozygosity were determined by PCR. Mice were examined for the occurrence of tumors twice weekly. When tumormetrics were performed, the length and width of the tumor was determined using calipers, and the tumor volume was determined (width^2×length/2). Tumor volume was used as a measure of growth and was recorded as ratio to tumor volume at diagnosis. Tumor doubling times were calculated using the functions of the best fit curves for all data points in each treatment modality. 5-(2,6-dimorpholinopyrimidin-4-yl)-4-(trifluoromethyl)pyridin-2-amine (Compound A) was resuspended in 5% Methylcellulose solution (Fluka) and administered via oral gavage at 50 mg/kg/day or 30 mg/kg/day. 4-[[3-[4-(cyclopropanecarbonyl)piperazine-1-carbonyl]-4-fluorophenyl]methyl]-2H-phthalazin-1-one (Compound B) was resuspended for intraperitoneal administration as described (Rottenberg et al. Proc. Natl. Acad. Sci. USA., 105: 17079-17084, 2008) and dosed at 50 mg/kg/day. For patient-derived tumor grafts consent for tumor use was obtained from patients under a protocol approved by the Vall d'Hebron Hospital Clinical Investigation Ethical Committee. Tumors were subcutaneously implanted in 6-week-old female HsdCpb:NMRI-Foxn1nu mice (Harlan Laboratories, Italy) Animals were supplemented with 1 μM estradiol (Sigma) in the drinking water. After tumor graft growth, tumor tissue was re-implanted into recipient mice, which were randomized upon implant growth.
0.3 to 0.4 mCi of fluorine-18-deoxyglucose were injected intravenously through the retroorbital vein of the anesthetized mouse. After a “washout” period of 1 hour the mouse was imaged on a NanoPET/CT (Bioscan/Mediso) scanner. The NanoPET/CT is a high-resolution small-animal multimodality scanner consisting of 12 lutetium yttrium oxyorthosilicate (LYSO) detector blocks. The blocks comprise a total of 39,780 crystals each with a dimension of 1.2×1.2×13 mm^3.
Images were acquired in three dimensions. The mice remained supine and maintained their position throughout the procedure. First, a CT scan was performed and second, a whole-body ^18F-FDG PET emission scan was acquired covering the same area as the CT scan. Counts per minute (cpm) were obtained, converted to mCi, and values were normalized for ROI volume and injected dose. In order to correct for metabolic variability between exams and to determine tumor-specific uptake changes, FDG-uptake rates were corrected for cardiac FDG-uptake (μCi injected/voxels^tumor)/(μCi/μCi injected/voxels^heart). For studies involving repeat scanning, the change in tumor-specific FDG-uptake was determined in percent (1−(FDG-uptake^post/FDG-uptake^pre)×100) Animals were housed in the Longwood SAIF satellite animal facility between scans.

[2] = test system: patient-derived tumor with BRCA1 germline mutation 2080delA; experiment: Patient-derived BRCA1 2080delA breast tumor xenograft growth; assay type: in vivo, human; details: untreated patient; Compound A 30 mg/kg/day, Compound B 50 mg/kg/day
Source text: FIGS. 6G and 6H are graphs showing the relative tumor volume (RTV) over time of tumors from breast cancer tissues from two patients, one with a 185delAG germline mutation (6G) and the other one with a 2080delA germline mutation (6H), propagated as subcutaneous implants in nude mice. Tumors were allowed to grow to a size of 5 mm when mice were randomized to treatments with either vehicle control (squares), Compound A (upside-down triangles), Compound B (triangles), or their combination (diamonds) (n=6 for each cohort, same dosing as in 6F).
All animal experiments were conducted in accordance with IACUC-approved protocols at Beth Israel Deaconess Medical Center, Boston, and at the University of Vall d'Hebron, Barcelona, Spain. […] The floxed or wild type status of Brca1, the presence of the MMTV-Cre transgene and the p53 heterozygosity were determined by PCR. […] When tumormetrics were performed, the length and width of the tumor was determined using calipers, and the tumor volume was determined (width^2×length/2). Tumor volume was used as a measure of growth and was recorded as ratio to tumor volume at diagnosis. Tumor doubling times were calculated using the functions of the best fit curves for all data points in each treatment modality. […]

[3] = after 2 weeks of continued treatment
[4] = within 48 hours of instituting treatment

Nc1cc(C(F)(F)F)c(-c2cc(N3CCOCC3)nc(N3CCOCC3)n2)cn1 [Compound A, 5-(2,6-dimorpholinopyrimidin-4-yl)-4-(trifluoromethyl)pyridin-2-amine]
FDG-uptake of treated tumors [1]: strongly reduced FDG-uptake | median decrease in FDG-uptake [1, 3]: 54% | range of decrease in FDG-uptake [1, 3]: 45.5-70.5% | decrease in 18FDG-uptake, individual tumors of one mouse ([1]; within 48 hours after start, 50 mg/kg/day by gavage, four simultaneous tumors, 50 mg/kg/day): 45% and 64% (2×) and 56% | median decrease in FDG-uptake [1, 4]: 46.7% | range of decrease in FDG-uptake [1, 4]: 38.1-92.3 | sensitivity of patient-derived tumor (relative tumor volume) [2]: exquisite sensitivity

O=C(c1cc(Cc2n[nH]c(=O)c3ccccc23)ccc1F)N1CCN(C(=O)C2CC2)CC1 [Compound B, 4-[[3-[4-(cyclopropanecarbonyl)piperazine-1-carbonyl]-4-fluorophenyl]methyl]-2H-phthalazin-1-one, reference compound]
FDG-uptake of treated tumors [1]: increased FDG-uptake | sensitivity of patient-derived tumor (relative tumor volume) [2]: exquisite sensitivity
